According to ChEMBL document CHEMBL1201862, “PubChem BioAssay data set” (2004):
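A five-concentration, 48-hour dose response in 96-well plates underlies each endpoint, interpolated linearly between surrounding concentrations. Abbreviation: GI50, concentration required for 50% inhibition of growth.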 Activity calls are given as the source filed them. No stated cut-off is given here; in the data, active = GI50 up to about 1.1 µM and inactive = higher.

Tests used:
Assay in all cases: NCI anticancer screen, dose series, 48 h
UACC-62 = tested on: UACC-62
NCI-H522 = tested on: NCI-H522
NCI/ADR-RES = tested on: NCI/ADR-RES
RPMI-8226 = tested on: RPMI-8226
EKVX = tested on: EKVX
OVCAR-5 = tested on: OVCAR-5
CCRF-CEM = tested on: CCRF-CEM
OVCAR-4 = tested on: OVCAR-4
HL-60 = tested on: HL-60
HT-29 = tested on: HT-29
COLO 205 = tested on: COLO 205
Hs-578T = tested on: Hs-578T
PC-3 = tested on: PC-3
A549 = tested on: A549
SF-268 = tested on: SF-268
Malme-3M = tested on: Malme-3M
OVCAR-3 = tested on: OVCAR-3
MCF7 = tested on: MCF7
SF-295 = tested on: SF-295
SK-MEL-5 = tested on: SK-MEL-5
TK-10 = tested on: TK-10
IGROV-1 = tested on: IGROV-1
U-251 = tested on: U-251
SF-539 = tested on: SF-539
CAKI-1 = tested on: CAKI-1
HCT-116 = tested on: HCT-116
LOX IMVI = tested on: LOX IMVI
MOLT-4 = tested on: MOLT-4
HCT-15 = tested on: HCT-15
K562 = tested on: K562
786-0 = tested on: 786-0
RXF 393 = tested on: RXF 393
DU-145 = tested on: DU-145
SW-620 = tested on: SW-620
ACHN = tested on: ACHN
NCI-H460 = tested on: NCI-H460
SN12C = tested on: SN12C
M14 = tested on: M14
KM12 = tested on: KM12
HOP-92 = tested on: HOP-92
HOP-62 = tested on: HOP-62
T47D = tested on: T47D
UO-31 = tested on: UO-31
MDA-MB-231 = tested on: MDA-MB-231
SK-OV-3 = tested on: SK-OV-3
MDA-N = tested on: MDA-N
UACC-257 = tested on: UACC-257
MDA-MB-435 = tested on: MDA-MB-435
NCI-H23 = tested on: NCI-H23
HCC 2998 = tested on: HCC 2998
NCI-H226 = tested on: NCI-H226
OVCAR-8 = tested on: OVCAR-8
SR = tested on: SR
BT-549 = tested on: BT-549
SNB-19 = tested on: SNB-19
SK-MEL-28 = tested on: SK-MEL-28
A498 = tested on: A498
SNB-75 = tested on: SNB-75
SK-MEL-2 = tested on: SK-MEL-2

`O=C(NNC(=O)c1ccc(Cl)cc1NC(=O)C12CC3CC(CC(C3)C1)C2)c1ccc(Cl)cc1` was tested, and the GI50 (UACC-62) was 21.7 µM (inactive), the GI50 (NCI-H522) was 14.7 µM (inactive) and the GI50 (NCI/ADR-RES) was 24.8 µM (inactive). For the same compound, the GI50 (RPMI-8226) was 15.7 µM (inactive), the GI50 (EKVX) was 23.2 µM (inactive) and the GI50 (OVCAR-5) was 28.3 µM (inactive). The GI50 (CCRF-CEM) was 23.4 µM (inactive), the GI50 (OVCAR-4) was 34.8 µM (inactive) and the GI50 (HL-60) was 25.7 µM (inactive). For the same compound, the GI50 (HT-29) was 28.2 µM (inactive), the GI50 (COLO 205) was 14.5 µM (inactive) and the GI50 (Hs-578T) was 21.5 µM (inactive). The GI50 (PC-3) was 26.8 µM (inactive), the GI50 (A549) was 19.5 µM (inactive) and the GI50 (SF-268) was 29.9 µM (inactive). For the same compound, the GI50 (Malme-3M) was 11.4 µM (inactive), the GI50 (OVCAR-3) was 19.5 µM (inactive) and the GI50 (MCF7) was 27.9 µM (inactive). The GI50 (SF-295) was 22.9 µM (inactive), the GI50 (SK-MEL-5) was 18 µM (inactive) and the GI50 (TK-10) was 20.1 µM (inactive). For the same compound, the GI50 (IGROV-1) was 15 µM (inactive), the GI50 (U-251) was 20.2 µM (inactive) and the GI50 (SF-539) was 23.7 µM (inactive). The GI50 (CAKI-1) was 24.4 µM (inactive), the GI50 (HCT-116) was 20.3 µM (inactive) and the GI50 (LOX IMVI) was 18.5 µM (inactive). For the same compound, the GI50 (MOLT-4) was 30.1 µM (inactive), the GI50 (HCT-15) was 17.5 µM and the GI50 (K562) was 34.9 µM (inactive). For the same compound, the GI50 (786-0) was 22.5 µM (inactive), the GI50 (RXF 393) was 19.5 µM (inactive) and the GI50 (DU-145) was 22.8 µM (inactive). For the same compound, the GI50 (SW-620) was 32.1 µM (inactive), the GI50 (ACHN) was 23.6 µM (inactive) and the GI50 (NCI-H460) was 23.2 µM (inactive). For the same compound, the GI50 (SN12C) was 27.7 µM (inactive), the GI50 (M14) was 21.2 µM (inactive) and the GI50 (KM12) was 20.3 µM (inactive). For the same compound, the GI50 (HOP-92) was 17.5 µM (inactive), the GI50 (HOP-62) was 19.8 µM (inactive) and the GI50 (T47D) was 27.9 µM (inactive). For the same compound, the GI50 (UO-31) was 17.1 µM (inactive), the GI50 (MDA-MB-231) was 22 µM (inactive) and the GI50 (SK-OV-3) was 25.3 µM (inactive). The GI50 (MDA-N) was 22 µM (inactive), the GI50 (UACC-257) was 25.8 µM (inactive) and the GI50 (MDA-MB-435) was 18.6 µM (inactive). For the same compound, the GI50 (NCI-H23) was 39.7 µM (inactive), the GI50 (HCC 2998) was 17.1 µM (inactive) and the GI50 (NCI-H226) was 22.7 µM (inactive). The GI50 (OVCAR-8) was 32.7 µM (inactive), the GI50 (SR) was 28.8 µM (inactive) and the GI50 (BT-549) was 41.7 µM (inactive). The GI50 (SNB-19) was 19.1 µM (inactive).
With `CCOC(=O)c1cc2cc(N(C(C)=O)C(C)=O)ccc2s1` the GI50 (UACC-62) was 31.6 µM (inactive), the GI50 (NCI-H522) was 16.8 µM (inactive) and the GI50 (NCI/ADR-RES) was 33.7 µM (inactive). For the same compound, the GI50 (RPMI-8226) was 19.6 µM (inactive), the GI50 (EKVX) was 20.6 µM (inactive) and the GI50 (OVCAR-5) was 25.1 µM (inactive). The GI50 (CCRF-CEM) was 21.9 µM (inactive), the GI50 (SK-MEL-28) was 30.8 µM (inactive) and the GI50 (OVCAR-4) was 31.3 µM (inactive). For the same compound, the GI50 (HL-60) was 13 µM (inactive), the GI50 (HT-29) was 20 µM (inactive) and the GI50 (COLO 205) was 33.7 µM (inactive). The GI50 (Hs-578T) was 16.9 µM (inactive), the GI50 (PC-3) was 20.5 µM (inactive) and the GI50 (A549) was 36.1 µM (inactive). The GI50 (SF-268) was 23.2 µM (inactive), the GI50 (Malme-3M) was 16.6 µM (inactive) and the GI50 (OVCAR-3) was 30.8 µM (inactive). The GI50 (MCF7) was 28.3 µM (inactive), the GI50 (SF-295) was 30.8 µM (inactive) and the GI50 (SK-MEL-5) was 20.7 µM (inactive). For the same compound, the GI50 (TK-10) was 56.6 µM (inactive), the GI50 (IGROV-1) was 38 µM (inactive) and the GI50 (U-251) was 20.7 µM (inactive). The GI50 (SF-539) was 27 µM (inactive), the GI50 (CAKI-1) was 39.4 µM (inactive) and the GI50 (A498) was 13.8 µM (inactive). For the same compound, the GI50 (HCT-116) was 29.5 µM (inactive), the GI50 (LOX IMVI) was 33.5 µM (inactive) and the GI50 (MOLT-4) was 18.6 µM (inactive). The GI50 (HCT-15) was 36.1 µM, the GI50 (K562) was 24.7 µM (inactive) and the GI50 (786-0) was 27.2 µM (inactive). The GI50 (SNB-75) was 10.1 µM (inactive), the GI50 (RXF 393) was 13.5 µM (inactive) and the GI50 (DU-145) was 23.7 µM (inactive). The GI50 (SW-620) was 36.2 µM (inactive), the GI50 (SK-MEL-2) was 22.5 µM (inactive) and the GI50 (ACHN) was 25.2 µM (inactive). For the same compound, the GI50 (NCI-H460) was 38.5 µM (inactive), the GI50 (SN12C) was 19.7 µM (inactive) and the GI50 (M14) was 25.1 µM (inactive). For the same compound, the GI50 (KM12) was 40.5 µM (inactive), the GI50 (HOP-92) was 27.1 µM (inactive) and the GI50 (HOP-62) was 48.1 µM (inactive). The GI50 (T47D) was 18.3 µM (inactive), the GI50 (UO-31) was 27.7 µM (inactive) and the GI50 (MDA-MB-231) was 23 µM (inactive). The GI50 (SK-OV-3) was 30.4 µM (inactive), the GI50 (MDA-N) was 29.2 µM (inactive) and the GI50 (UACC-257) was 40 µM (inactive). For the same compound, the GI50 (MDA-MB-435) was 37 µM (inactive), the GI50 (NCI-H23) was 45.3 µM (inactive) and the GI50 (HCC 2998) was 35.4 µM (inactive). For the same compound, the GI50 (NCI-H226) was 20.4 µM (inactive), the GI50 (OVCAR-8) was 26.8 µM (inactive) and the GI50 (BT-549) was 29.9 µM (inactive). The GI50 (SNB-19) was 36.9 µM (inactive).
